{"source": "patent US20250042900A1", "about": "(priority 2022, published 2025)", "assay_type_in_all_cases": "cell-based", "key": {"[1]": {"molecular_target": "T1, 5-HT1B receptors (Homo sapiens, UniProt P28222)", "T1 construct": "host or cells: cAMP Hunter cell line", "T1 sequence (P28222 whole entry)": "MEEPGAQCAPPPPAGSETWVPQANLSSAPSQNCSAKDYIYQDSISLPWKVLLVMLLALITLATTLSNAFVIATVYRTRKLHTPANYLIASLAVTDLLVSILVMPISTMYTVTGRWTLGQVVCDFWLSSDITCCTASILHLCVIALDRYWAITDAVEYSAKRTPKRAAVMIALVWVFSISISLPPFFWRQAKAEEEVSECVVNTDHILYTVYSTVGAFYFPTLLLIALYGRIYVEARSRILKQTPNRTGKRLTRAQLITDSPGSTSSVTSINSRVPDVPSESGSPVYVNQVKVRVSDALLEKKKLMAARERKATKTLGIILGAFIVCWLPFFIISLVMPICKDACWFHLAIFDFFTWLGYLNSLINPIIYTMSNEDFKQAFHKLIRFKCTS", "experiment": "In vitro activity at 5-HT1B receptors, agonist mode (cAMP secondary messenger assay)"}, "[2]": {"molecular_target": "T2, 5-Hydroxytryptamine (Serotonin) Receptor 1B (5-HT1B) (Homo sapiens, UniProt P28222)", "T2 construct": "host or cells: cAMP Hunter cell line", "T2 sequence (P28222 whole entry)": "as above", "experiment": "cAMP secondary messenger assay, antagonist format", "details": "read-out: IC50 (μM) Antag./Blocker/Inhibitor"}, "[3]": {"molecular_target": "T3, 5-Hydroxytryptamine (Serotonin) Receptor 3A (5-HT3A) (Homo sapiens, UniProt P46098)", "T3 construct": "expressed in transfected cells", "T3 sequence (P46098 24-478)": "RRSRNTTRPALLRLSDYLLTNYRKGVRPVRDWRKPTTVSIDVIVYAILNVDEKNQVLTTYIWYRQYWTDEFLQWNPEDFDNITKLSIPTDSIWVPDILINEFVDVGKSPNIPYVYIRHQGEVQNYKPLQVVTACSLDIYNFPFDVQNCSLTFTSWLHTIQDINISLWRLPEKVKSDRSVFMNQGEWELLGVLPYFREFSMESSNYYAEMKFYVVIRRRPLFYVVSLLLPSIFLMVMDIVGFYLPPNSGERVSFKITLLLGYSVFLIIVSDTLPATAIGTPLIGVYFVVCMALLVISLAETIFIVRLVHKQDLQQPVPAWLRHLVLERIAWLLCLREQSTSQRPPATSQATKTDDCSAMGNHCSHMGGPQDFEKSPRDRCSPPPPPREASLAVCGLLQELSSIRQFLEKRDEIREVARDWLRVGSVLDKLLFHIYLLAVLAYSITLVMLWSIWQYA", "experiment": "Ion channel assay, blocker format", "details": "read-out: IC50 (μM) Antag./Blocker/Inhibitor"}, "[4]": {"molecular_target": "T4, 5-Hydroxytryptamine (Serotonin) Receptor 1A (5-HT1A) (Homo sapiens, UniProt P08908)", "T4 construct": "host or cells: cAMP Hunter cell line", "T4 sequence (P08908 whole entry)": "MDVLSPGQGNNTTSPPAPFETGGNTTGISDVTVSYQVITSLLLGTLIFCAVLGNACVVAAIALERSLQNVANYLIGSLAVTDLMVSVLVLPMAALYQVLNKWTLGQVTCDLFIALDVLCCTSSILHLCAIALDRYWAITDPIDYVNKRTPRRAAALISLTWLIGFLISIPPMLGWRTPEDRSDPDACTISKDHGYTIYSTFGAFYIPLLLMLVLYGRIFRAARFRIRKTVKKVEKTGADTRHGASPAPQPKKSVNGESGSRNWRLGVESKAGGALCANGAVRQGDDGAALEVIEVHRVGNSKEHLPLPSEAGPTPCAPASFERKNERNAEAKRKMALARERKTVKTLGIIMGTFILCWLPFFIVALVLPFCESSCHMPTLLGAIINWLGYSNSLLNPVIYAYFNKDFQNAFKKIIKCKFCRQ", "experiment": "cAMP secondary messenger assay, agonist format", "details": "read-out: EC50 (μM) Agonist/Opener"}, "[5]": {"molecular_target": "Adenosine Receptor A2A (ADORA2A) (Homo sapiens, UniProt P29274)", "experiment": "Calcium flux secondary messenger assay, agonist format", "details": "read-out: EC50 (μM) Agonist/Opener"}, "[6]": {"molecular_target": "Adrenergic Receptor β1 (ADRB1) (Homo sapiens, UniProt P08588)", "sequence (P08588 whole entry)": "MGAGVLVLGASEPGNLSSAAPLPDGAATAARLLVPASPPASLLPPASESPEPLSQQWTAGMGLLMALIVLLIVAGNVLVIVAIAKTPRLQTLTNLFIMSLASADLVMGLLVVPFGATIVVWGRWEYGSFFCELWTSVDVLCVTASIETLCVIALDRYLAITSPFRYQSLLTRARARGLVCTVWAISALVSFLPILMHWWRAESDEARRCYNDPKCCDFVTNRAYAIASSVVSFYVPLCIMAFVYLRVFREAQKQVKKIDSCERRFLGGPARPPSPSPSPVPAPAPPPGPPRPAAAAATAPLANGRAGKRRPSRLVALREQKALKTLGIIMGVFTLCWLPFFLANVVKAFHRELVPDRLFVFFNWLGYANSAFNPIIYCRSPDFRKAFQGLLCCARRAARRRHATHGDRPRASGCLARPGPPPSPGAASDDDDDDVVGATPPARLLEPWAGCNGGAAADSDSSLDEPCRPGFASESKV", "experiment": "cAMP secondary messenger assay, agonist format", "details": "read-out: EC50 (μM) Agonist/Opener"}, "[7]": {"molecular_target": "Cannabinoid Receptor 1 (CNR1) (Homo sapiens, UniProt P21554)", "sequence (P21554 whole entry)": "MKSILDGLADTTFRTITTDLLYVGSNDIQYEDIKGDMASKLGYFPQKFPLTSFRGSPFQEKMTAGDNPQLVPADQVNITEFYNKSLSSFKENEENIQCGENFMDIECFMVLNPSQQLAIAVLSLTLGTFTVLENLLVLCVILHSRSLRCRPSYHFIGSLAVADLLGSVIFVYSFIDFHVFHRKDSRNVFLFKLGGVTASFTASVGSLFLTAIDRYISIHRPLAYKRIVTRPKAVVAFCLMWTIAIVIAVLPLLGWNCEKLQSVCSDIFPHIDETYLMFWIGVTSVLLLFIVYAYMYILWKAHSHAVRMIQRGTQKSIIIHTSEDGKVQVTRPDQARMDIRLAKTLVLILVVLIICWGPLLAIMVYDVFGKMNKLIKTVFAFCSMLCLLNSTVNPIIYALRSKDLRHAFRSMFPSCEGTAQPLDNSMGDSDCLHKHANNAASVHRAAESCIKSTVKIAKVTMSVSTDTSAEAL", "experiment": "cAMP secondary messenger assay, antagonist format", "details": "read-out: IC50 (μM) Antag./Blocker/Inhibitor"}, "[8]": {"molecular_target": "Cannabinoid Receptor 2 (CNR2) (Homo sapiens, UniProt P34972)", "sequence (P34972 whole entry)": "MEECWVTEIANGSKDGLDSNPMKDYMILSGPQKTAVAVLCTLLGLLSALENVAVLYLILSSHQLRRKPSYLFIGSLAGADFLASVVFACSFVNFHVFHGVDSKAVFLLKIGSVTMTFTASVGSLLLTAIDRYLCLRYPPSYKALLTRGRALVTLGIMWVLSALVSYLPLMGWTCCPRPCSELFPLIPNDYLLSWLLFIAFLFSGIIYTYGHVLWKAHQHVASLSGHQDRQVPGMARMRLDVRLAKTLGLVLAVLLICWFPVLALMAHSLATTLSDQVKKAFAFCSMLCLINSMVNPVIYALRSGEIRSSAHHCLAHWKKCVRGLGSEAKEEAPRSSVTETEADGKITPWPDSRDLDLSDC", "experiment": "cAMP secondary messenger assay, agonist format", "details": "read-out: EC50 (μM) Agonist/Opener"}, "[9]": {"molecular_target": "Dopamine Receptor D1 (DRD1) (Homo sapiens, UniProt P21728)", "sequence (P21728 whole entry)": "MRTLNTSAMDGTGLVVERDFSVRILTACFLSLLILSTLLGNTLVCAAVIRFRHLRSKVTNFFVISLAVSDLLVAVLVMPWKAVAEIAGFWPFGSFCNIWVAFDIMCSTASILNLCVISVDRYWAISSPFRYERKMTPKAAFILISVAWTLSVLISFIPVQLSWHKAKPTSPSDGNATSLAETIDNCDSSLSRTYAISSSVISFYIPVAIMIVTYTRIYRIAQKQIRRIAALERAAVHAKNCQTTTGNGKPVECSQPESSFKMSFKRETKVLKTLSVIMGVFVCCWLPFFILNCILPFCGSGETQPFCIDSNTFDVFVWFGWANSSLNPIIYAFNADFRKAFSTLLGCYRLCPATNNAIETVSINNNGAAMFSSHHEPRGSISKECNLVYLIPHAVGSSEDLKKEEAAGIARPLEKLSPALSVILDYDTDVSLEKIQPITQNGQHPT", "experiment": "cAMP secondary messenger assay, antagonist format", "details": "read-out: IC50 (μM) Antag./Blocker/Inhibitor"}, "[10]": {"molecular_target": "Dopamine Receptor D2 (DRD2S) (Homo sapiens, UniProt P14416)", "sequence (P14416 1-414 isoform P14416-2)": "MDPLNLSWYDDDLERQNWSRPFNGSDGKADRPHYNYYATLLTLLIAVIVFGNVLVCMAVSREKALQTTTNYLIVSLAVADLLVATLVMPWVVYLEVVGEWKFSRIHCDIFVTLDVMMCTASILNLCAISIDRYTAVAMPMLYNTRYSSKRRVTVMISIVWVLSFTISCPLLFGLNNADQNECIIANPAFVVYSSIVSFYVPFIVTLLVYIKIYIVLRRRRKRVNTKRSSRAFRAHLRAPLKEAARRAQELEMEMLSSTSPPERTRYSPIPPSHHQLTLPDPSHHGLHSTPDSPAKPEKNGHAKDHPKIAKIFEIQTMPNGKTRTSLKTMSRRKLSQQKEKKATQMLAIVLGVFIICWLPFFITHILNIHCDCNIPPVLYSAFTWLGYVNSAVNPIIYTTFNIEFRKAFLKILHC", "experiment": "cAMP secondary messenger assay, antagonist format", "details": "read-out: IC50 (μM) Antag./Blocker/Inhibitor"}, "[11]": {"molecular_target": "T5, Opioid Receptor Kappa 1 (OPRK1) (Homo sapiens, UniProt P41145)", "T5 sequence (P41145 whole entry)": "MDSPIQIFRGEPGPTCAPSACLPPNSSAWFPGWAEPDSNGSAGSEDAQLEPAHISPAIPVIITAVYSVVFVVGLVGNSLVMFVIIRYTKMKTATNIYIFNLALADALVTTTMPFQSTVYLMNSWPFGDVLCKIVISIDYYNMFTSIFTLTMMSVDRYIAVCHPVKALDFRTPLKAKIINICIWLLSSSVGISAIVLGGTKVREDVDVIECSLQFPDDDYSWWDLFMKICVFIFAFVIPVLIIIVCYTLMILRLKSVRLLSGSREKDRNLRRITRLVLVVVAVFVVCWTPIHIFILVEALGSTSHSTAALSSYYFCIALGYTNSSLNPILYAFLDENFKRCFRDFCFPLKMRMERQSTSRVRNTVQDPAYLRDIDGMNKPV", "experiment": "cAMP secondary messenger assay, agonist format", "details": "read-out: EC50 (μM) Agonist/Opener"}, "[12]": {"molecular_target": "T5, Opioid Receptor Kappa 1 (OPRK1)", "experiment": "cAMP secondary messenger assay, antagonist format", "details": "read-out: IC50 (μM) Antag./Blocker/Inhibitor"}, "[13]": {"molecular_target": "Nuclear Hormone Glucocorticoid Receptor (GR) (Homo sapiens, UniProt P04150)", "sequence (P04150 whole entry)": "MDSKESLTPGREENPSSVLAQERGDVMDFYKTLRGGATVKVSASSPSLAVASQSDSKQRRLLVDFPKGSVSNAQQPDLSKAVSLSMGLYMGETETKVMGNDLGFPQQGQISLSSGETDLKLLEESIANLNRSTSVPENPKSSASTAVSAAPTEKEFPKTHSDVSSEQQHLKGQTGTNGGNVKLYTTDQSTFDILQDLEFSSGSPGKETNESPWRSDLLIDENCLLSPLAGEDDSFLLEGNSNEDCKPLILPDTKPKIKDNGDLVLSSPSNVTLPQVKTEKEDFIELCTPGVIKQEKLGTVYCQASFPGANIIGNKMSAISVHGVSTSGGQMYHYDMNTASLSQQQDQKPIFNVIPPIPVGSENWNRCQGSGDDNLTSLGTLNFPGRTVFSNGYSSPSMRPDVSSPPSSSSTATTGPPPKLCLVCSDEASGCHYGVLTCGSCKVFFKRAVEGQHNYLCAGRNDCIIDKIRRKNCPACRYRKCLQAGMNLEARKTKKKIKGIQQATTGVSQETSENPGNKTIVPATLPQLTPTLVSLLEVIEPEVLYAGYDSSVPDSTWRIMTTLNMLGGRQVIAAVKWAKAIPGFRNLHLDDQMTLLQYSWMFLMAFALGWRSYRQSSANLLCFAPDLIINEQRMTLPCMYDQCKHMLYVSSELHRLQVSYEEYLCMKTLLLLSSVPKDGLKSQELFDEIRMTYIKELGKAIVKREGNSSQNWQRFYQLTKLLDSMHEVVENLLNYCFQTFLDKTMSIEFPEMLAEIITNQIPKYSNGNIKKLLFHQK", "experiment": "NHR Protein Interaction assay, antagonist format", "details": "read-out: IC50 (μM) Antag./Blocker/Inhibitor"}}, "note": "Structures can show the parent of a compound that is named as a salt. Where two headings read alike, the source gives them in different places.", "data": [{"smiles": "CN(C)CCc1ccn2ccccc12", "note": "[28-12 oxalate, 2-(indolizin-1-yl)-N, N-dimethylethan-1-amine oxalate]", "values": [{"measurement": "EC50", "setting": "[1]; 5-HT1B, cAMP, read-out: EC50 (μM) Agonist/Opener", "result": 0.143, "unit": "µM"}, {"measurement": "EC50", "setting": "[1]; EC50, agonism of 5-HT1B receptors, ten concentrations up to 30 μM", "result": "~0.143", "unit": "µM"}, {"measurement": "IC50", "setting": "[2]", "result": "> 30", "unit": "µM"}, {"measurement": "IC50", "setting": "[3]", "result": 7.82, "unit": "µM"}, {"measurement": "EC50", "setting": "[4]", "result": "> 30", "unit": "µM"}, {"measurement": "EC50", "setting": "[5]", "result": "> 30", "unit": "µM"}, {"measurement": "EC50", "setting": "[6]", "result": "> 30", "unit": "µM"}, {"measurement": "IC50", "setting": "[7]", "result": "> 30", "unit": "µM"}, {"measurement": "EC50", "setting": "[8]", "result": "> 30", "unit": "µM"}, {"measurement": "IC50", "setting": "[9]", "result": "> 30", "unit": "µM"}, {"measurement": "IC50", "setting": "[10]", "result": 22.3, "unit": "µM"}, {"measurement": "EC50", "setting": "[11]", "result": "> 30", "unit": "µM"}, {"measurement": "IC50", "setting": "[12]", "result": "> 30", "unit": "µM"}, {"measurement": "IC50", "setting": "[13]", "result": 17.1, "unit": "µM"}]}]}
